The values below come from ChEMBL document CHEMBL1142821, “Identification of potent type I MetAPs inhibitors by simple bioisosteric replacement. Part 2: SAR studies of 5-heteroalkyl substituted TCAT derivatives” (Bioorg Med Chem Lett, 2005).

For orientation: pIC50 means the negative decadic logarithm of the IC50, by convention in mol/L. High values mean a low IC50, low ones a high IC50.

pIC50: −log10 of the molar value.

Assay [1] addresses T1, Methionine aminopeptidase (Escherichia coli K-12, UniProt P0AE18).
T1 sequence (P0AE18 whole entry): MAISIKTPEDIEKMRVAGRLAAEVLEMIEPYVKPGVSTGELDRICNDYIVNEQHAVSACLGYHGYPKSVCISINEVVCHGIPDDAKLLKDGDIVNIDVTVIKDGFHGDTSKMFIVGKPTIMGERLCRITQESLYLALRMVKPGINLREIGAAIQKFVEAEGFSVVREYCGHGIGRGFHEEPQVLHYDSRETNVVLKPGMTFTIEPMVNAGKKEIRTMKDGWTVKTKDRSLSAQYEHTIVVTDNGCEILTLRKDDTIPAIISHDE
Put plainly: Inhibitory concentration against EcMetAP1 enzyme activity.

The target in assay [2] is T2, Methionine aminopeptidase 1 (Saccharomyces cerevisiae S288c, UniProt Q01662).
T2 sequence (Q01662 whole entry): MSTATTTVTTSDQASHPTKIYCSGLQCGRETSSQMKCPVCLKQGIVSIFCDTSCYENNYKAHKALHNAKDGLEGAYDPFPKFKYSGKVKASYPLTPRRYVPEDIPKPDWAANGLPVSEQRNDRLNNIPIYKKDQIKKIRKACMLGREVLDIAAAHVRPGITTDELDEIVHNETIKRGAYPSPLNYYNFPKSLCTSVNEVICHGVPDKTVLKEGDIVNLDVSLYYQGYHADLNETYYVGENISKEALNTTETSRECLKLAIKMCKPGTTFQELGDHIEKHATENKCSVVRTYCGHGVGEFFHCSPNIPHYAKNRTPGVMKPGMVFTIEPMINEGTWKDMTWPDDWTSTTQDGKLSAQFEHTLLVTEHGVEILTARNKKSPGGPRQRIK
Nature of the assay: Inhibitory concentration against ScMetAP1 enzyme activity.

In the case of `COC(Cc1scnc1C(=O)Nc1nccs1)c1cccc(F)c1` (centres undefined), the pIC50 in assay [1] was 7.43; in assay [2], 6.47.

Take `COC(Cc1scnc1C(=O)Nc1nccs1)c1ccc(F)cc1` (centres undefined): the pIC50 in assay [1] was 7.24; in assay [2] it was 6.41.

In the case of `COC(Cc1scnc1C(=O)Nc1nccs1)CC(C)C` (centres undefined), the pIC50 was 7.05 in assay [1] and 6.30 in assay [2].

In the case of `CO[C@@H](Cc1scnc1C(=O)Nc1nccs1)c1ccccc1`, the negative-log IC50 (pIC50) in assay [1] was 7.18; in assay [2], 6.35.

Take `COCc1scnc1C(=O)Nc1nccs1`: the pIC50 in assay [1] was 7.01; in assay [2], 5.12.

Regarding `COC(Cc1scnc1C(=O)Nc1nccs1)c1ccccc1` (centres undefined), the pIC50 in assay [1] was 7.37; in assay [2], 6.36.

`O=C(Nc1nccs1)c1ncsc1CN1CCOCC1`: the negative logarithm of the IC50 (pIC50) in assay [1] was 7.26; in assay [2] it was 5.75.

With `COCCc1scnc1C(=O)Nc1nccs1`, the pIC50 in assay [1] is 6.82; in assay [2], 5.19.

With `O=C(Nc1nccs1)c1ncsc1CCO`, the pIC50 in assay [1] was 6.33; in assay [2] it was 4.98.

Consider `COC(Cc1scnc1C(=O)Nc1nccs1)c1cccc(Cl)c1` (centres undefined), for which the pIC50 was 7.05 in assay [1] and 6.28 in assay [2].

As to `COC(Cc1scnc1C(=O)Nc1nccs1)c1ccc(Cl)cc1` (centres undefined), the results for the pIC50 in assay [1] and in assay [2] were 7.48 and 6.24, respectively.

Take `O=C(Nc1nccs1)c1ncsc1CCOC(=O)C1CCCC1`: the negative logarithm of the IC50 (pIC50) in assay [1] is 6.85; in assay [2], 6.10.

Turning to `COC(Cc1scnc1C(=O)Nc1nccs1)C1CCCCC1` (centres undefined), the pIC50 in assay [1] is 7.27; in assay [2], 6.40.

Take `O=C(Nc1nccs1)c1ncsc1CN1CCCCC1`: the pIC50 in assay [1] was 8.00; in assay [2], 7.12.

As for `CCCCC(Cc1scnc1C(=O)Nc1nccs1)OC` (centres undefined), the pIC50 in assay [1] was 7.00; in assay [2] it was 6.35.

With `O=C(COCc1ccccc1)OCCc1scnc1C(=O)Nc1nccs1`, the pIC50 was 6.89 in assay [1] and 6.26 in assay [2].

`COC(C)(C)Cc1scnc1C(=O)Nc1nccs1`: the pIC50 was 7.16 in assay [1] and 5.49 in assay [2].

Regarding `COC(c1ccccc1)c1scnc1C(=O)Nc1nccs1` (centres undefined), the pIC50 is 7.21 in assay [1] and 6.12 in assay [2].

In the case of `CO[C@H](Cc1scnc1C(=O)Nc1nccs1)c1ccccc1`, the negative-log IC50 (pIC50) in assay [1] was 7.44; in assay [2], 6.35.

Regarding `CC(=O)OCCc1scnc1C(=O)Nc1nccs1`, the negative logarithm of the IC50 (pIC50) in assay [1] is 6.51; in assay [2] it was 4.75.

As for `COc1cc(C(=O)OCCc2scnc2C(=O)Nc2nccs2)cc(OC)c1OC`, the pIC50 in assay [1] was 6.80; in assay [2] it was 5.81.

Consider `O=C(Nc1nccs1)c1ncsc1CCOCc1ccccc1`, for which the pIC50 is 7.05 in assay [1] and 5.37 in assay [2].

Take `COC(Cc1scnc1C(=O)Nc1nccs1)c1ccccc1Cl` (centres undefined): the pIC50 in assay [1] is 6.77; in assay [2], 6.64.

On to `O=C(OCCc1scnc1C(=O)Nc1nccs1)c1ccccc1`, for which the pIC50 is 7.39 in assay [1] and 5.51 in assay [2].

In the case of `COc1ccc(C(Cc2scnc2C(=O)Nc2nccs2)OC)cc1` (centres undefined), the pIC50 was 7.64 in assay [1] and 6.51 in assay [2].

`COC(Cc1scnc1C(=O)Nc1nccs1)c1ccccc1F` (centres undefined): the pIC50 in assay [1] is 7.47; in assay [2], 6.57.

With `O=C(Nc1nccs1)c1ncsc1CN1CCCC1`, the pIC50 in assay [1] was 7.60; in assay [2], 6.46.

`O=C(Nc1nccs1)c1ncsc1CCN1CCCCC1`: the negative logarithm of the IC50 (pIC50) is 7.35 in assay [1] and 6.39 in assay [2].

On to `COc1ccccc1C(Cc1scnc1C(=O)Nc1nccs1)OC` (centres undefined), for which the pIC50 in assay [1] was 7.46; in assay [2], 6.24.

`O=C(Cc1ccccc1)OCCc1scnc1C(=O)Nc1nccs1`: the pIC50 in assay [1] was 7.48; in assay [2], 5.22.

Take `Cc1ccc(S(=O)(=O)OCCc2scnc2C(=O)Nc2nccs2)cc1`: the pIC50 in assay [1] is 5.82; in assay [2] it was 5.43.

With `CCOC(Cc1scnc1C(=O)Nc1nccs1)C(C)C` (centres undefined), the negative-log IC50 (pIC50) in assay [1] is 7.55; in assay [2], 6.82.
